Values after ≈ are worked out from the molar mass of the structure shown. Active and inactive are the calls of the source. No cut-off for these calls is given here. Peptide text beside a SMILES is read from it.
How the values were obtained:
Staphylococcus aureus [1] = assay: Antibacterial activity against Staphylococcus aureus ATCC 29213 incubated overnight by standard microtiter dilution method; format: functional
Staphylococcus aureus [2] = assay: Antibacterial activity against methicillin-resistant Staphylococcus aureus ATCC 43300 incubated overnight by standard microtiter dilution method; format: functional
[3] = test system: Staphylococcus epidermidis; assay: Antibacterial activity against methicillin-resistant Staphylococcus epidermidis ATCC 12228 incubated overnight by standard microtiter dilution method; format: functional
Enterococcus faecalis = assay: Antibacterial activity against Enterococcus faecalis ATCC 29212 incubated overnight by standard microtiter dilution method; format: functional
Escherichia coli = assay: Antibacterial activity against Escherichia coli O157:H7 CICC 21530 incubated overnight by standard microtiter dilution method; format: functional
[4] = Antibacterial activity against Salmonella paratyphi C CICC 21512 incubated overnight by standard microtiter dilution method; format: functional, Salmonella enterica subsp. enterica serovar Paratyphi C; conditions: Salmonella enterica
[5] = Antibacterial activity against Salmonella enterica subsp. enterica serovar Choleraesuis ATCC 13312 incubated overnight by standard microtiter dilution method; format: functional
[6] = Antibacterial activity against Salmonella enterica subsp. enterica serovar Choleraesuis CICC 21493 incubated overnight by standard microtiter dilution method; format: functional
Salmonella enteritidis = assay: Antibacterial activity against Salmonella enteritidis CICC 21527 incubated overnight by standard microtiter dilution method; format: functional, Salmonella enterica subsp. enterica serovar Enteritidis; conditions: Salmonella enterica
Salmonella typhimurium [7] = assay: Antibacterial activity against Salmonella typhimurium CICC 21913 incubated overnight by standard microtiter dilution method; format: functional, Salmonella enterica subsp. enterica serovar Typhimurium; conditions: Salmonella enterica
Salmonella typhimurium [8] = assay: Antibacterial activity against Salmonella typhimurium DT104 in the presence of NaCl by MH broth based assay; format: functional, Salmonella enterica subsp. enterica serovar Typhimurium; conditions: Salmonella enterica
Salmonella typhimurium [9] = assay: Antibacterial activity against Salmonella typhimurium DT104 in the presence of KCl by MH broth based assay; format: functional, Salmonella enterica subsp. enterica serovar Typhimurium; conditions: Salmonella enterica
Salmonella typhimurium [10] = assay: Antibacterial activity against Salmonella typhimurium DT104 in the presence of NH4Cl by MH broth based assay; format: functional, Salmonella enterica subsp. enterica serovar Typhimurium; conditions: Salmonella enterica
Salmonella typhimurium [11] = assay: Antibacterial activity against Salmonella typhimurium DT104 in the presence of MgCl2 by MH broth based assay; format: functional, Salmonella enterica subsp. enterica serovar Typhimurium; conditions: Salmonella enterica
Salmonella typhimurium [12] = assay: Antibacterial activity against Salmonella typhimurium DT104 in the presence 25% inactivated mouse serum by MH broth based assay; format: functional, Salmonella enterica subsp. enterica serovar Typhimurium; conditions: Salmonella enterica
[13] = Hemolytic activity in human Red blood cells assessed as hemolysis at 128 ug/ml incubated for 1 hrs by absorbance based microplate reader analysis relative to control; format: toxicity, cell-based, Erythrocyte; conditions: red blood cells (erythrocytes), at 128 µg/mL, read-out: Activity
Salmonella typhimurium [14] = assay: Antibacterial activity against multi-drug resistant Salmonella typhimurium DT104 assessed as inhibition of bacterial growth at 0.5 to 2 times of MIC by MH agar based serial dilution method; format: functional, organism-based; conditions: Salmonella enterica subsp. enterica serovar Typhimurium, time <= 120.0 min, TDE = time-dependent effect
Salmonella typhimurium [15] = assay: Antibacterial activity against Salmonella typhimurium DT104 infected in mouse RAW264.7 cells assessed as bacterial killing at 1 times of MIC measured after 90 mins by MH agar based serial dilution method relative to control; format: functional, Salmonella enterica subsp. enterica serovar Typhimurium; conditions: 1.5 h
Salmonella typhimurium [16] = assay: Antibacterial activity against Salmonella typhimurium DT104 infected in mouse RAW264.7 cells assessed as reduction in bacterial cells at 1 times of MIC measured for 180 mins by MH agar based serial dilution method; format: functional, organism-based; conditions: Salmonella enterica subsp. enterica serovar Typhimurium
Lipopolysaccharide (LPS) = assay: Displacement of BODIPY-TR-cadaverine from Salmonella typhimurium LPS assessed as increase in fluorescence intensity by fluorescence spectrophotometric analysis; conditions: Salmonella enterica subsp. enterica serovar Typhimurium; dose 0.25-8 µg/ml
RAW264.7 [17] = assay: Anti-inflammatory activity in mouse RAW264.7 cells assessed as inhibition of LPS-induced iNOS mRNA expression at 15 ug/ml preincubated with compound for 30 mins followed by LPS stimulation and measured after 4 hrs by RT-PCR analysis; format: functional, cell-based; conditions: dose 15.0 µg/ml, time 4.5 hrs
RAW264.7 [18] = assay: Anti-inflammatory activity in mouse RAW264.7 cells assessed as inhibition of LPS-induced IL-1beta mRNA expression at 15 ug/ml preincubated with compound for 30 mins followed by LPS stimulation and measured after 4 hrs by RT-PCR analysis; format: functional, cell-based; conditions: dose 15.0 µg/ml, time 4.5 hrs
RAW264.7 [19] = assay: Anti-inflammatory activity in mouse RAW264.7 cells assessed as inhibition of LPS-induced IL-4 mRNA expression at 15 ug/ml preincubated with compound for 30 mins followed by LPS stimulation and measured after 4 hrs by RT-PCR analysis; format: functional, cell-based; conditions: dose 15.0 µg/ml, time 4.5 hrs
RAW264.7 [20] = assay: Inhibition of LPS-stimulated NO production in mouse RAW264.7 cells incubated for 24 hrs by Griess reagent based analysis; format: functional, cell-based; conditions: dose 1-128 µg/ml
RAW264.7 [21] = assay: Inhibition of LPS-stimulated TNF-alpha production in mouse RAW264.7 cells at 1 to 128 ug/ml incubated for 24 hrs by ELISA analysis; format: functional, cell-based; conditions: dose 1-128 µg/ml
Salmonella typhimurium [22] = assay: Antibacterial activity against Salmonella typhimurium DT104 infected in ICR mouse model assessed as body weight gain at 2 mg/kg, ip administered for 3 days and measured from day 4 to day 7; format: functional, organism-based; conditions: Salmonella enterica subsp. enterica serovar Typhimurium, time 7.0 day
Salmonella typhimurium [23] = assay: Antibacterial activity against Salmonella typhimurium DT104 assessed as reduction in TNF-alpha mRNA level in ileum at 20 mg/kg, ip administered for 3 days and measured on day 7 by RT-PCR analysis; format: functional, organism-based; conditions: Salmonella enterica subsp. enterica serovar Typhimurium, time 7.0 day
Salmonella typhimurium [24] = assay: Antibacterial activity against Salmonella typhimurium DT104 assessed as reduction in IL-1beta mRNA level in ileum at 20 mg/kg, ip administered for 3 days and measured on day 7 by RT-PCR analysis; format: functional, organism-based; conditions: Salmonella enterica subsp. enterica serovar Typhimurium, time 7.0 day
Salmonella typhimurium [25] = assay: Antibacterial activity against Salmonella typhimurium DT104 assessed as reduction in IL-6 mRNA level in ileum at 20 mg/kg, ip administered for 3 days and measured on day 7 by RT-PCR analysis; format: functional, organism-based; conditions: Salmonella enterica subsp. enterica serovar Typhimurium, time 7.0 day
Salmonella typhimurium [26] = assay: Antibacterial activity against Salmonella typhimurium DT104 assessed as increase in ZO-2 mRNA level in colon at 20 mg/kg, ip administered for 3 days and measured on day 7 by RT-PCR analysis; format: functional, organism-based; conditions: Salmonella enterica subsp. enterica serovar Typhimurium, time 7.0 day
Salmonella typhimurium [27] = assay: Antibacterial activity against Salmonella typhimurium DT104 assessed as increase in occludin mRNA level in colon at 20 mg/kg, ip administered for 3 days and measured on day 7 by RT-PCR analysis; format: functional, organism-based; conditions: Salmonella enterica subsp. enterica serovar Typhimurium, time 7.0 day
Salmonella typhimurium [28] = assay: Antibacterial activity against Salmonella typhimurium DT104 infected in ICR mouse model assessed as alleviation of intestinal mucosal damage at 20 mg/kg, ip administered for 3 days and measured on day 7 by H&E staining based analysis; format: functional, organism-based; conditions: Salmonella enterica subsp. enterica serovar Typhimurium, time 7.0 day
Lipid bilayer = assay: Induction of outer membrane permeabilization in Salmonella typhimurium DT104 at 0.625 to 15 microg/ml by NPN uptake based fluorescence spectrophotometric analysis; conditions: Salmonella enterica subsp. enterica serovar Typhimurium, dose 0.625-15 µg/ml
Cell membrane [29] = assay: Disruption of membrane integrity in Salmonella typhimurium DT104 assessed as increase in fluorescence intensity at 0.5 to 2 times of MIC incubated for 15 mins by PI staining based flow cytometric analysis; format: subcellular; conditions: Salmonella enterica subsp. enterica serovar Typhimurium
Cell membrane [30] = assay: Induction of membrane damage in Salmonella typhimurium DT104 assessed as membrane creping at 1 times of MIC incubated for 60 mins by atomic force microscopic analysis; format: subcellular; conditions: Salmonella enterica subsp. enterica serovar Typhimurium
Cell membrane [31] = assay: Induction of membrane damage in Salmonella typhimurium DT104 assessed as cytoplasmic outflow at 1 times of MIC incubated for 60 mins by transmission electron microscopic analysis; format: subcellular; conditions: Salmonella enterica subsp. enterica serovar Typhimurium

C[C@@H](O)[C@H](NC(=O)[C@H](CS)NC(=O)[C@H](CCCCN)NC(=O)[C@H](Cc1c[nH]c2ccccc12)NC(=O)[C@H](CCCCN)NC(=O)[C@@H](N)Cc1c[nH]c2ccccc12)C(=O)N[C@@H](CCCCN)C(=O)N[C@@H](CO)C(=O)NCC(=O)N[C@@H](CS)C(=O)N[C@@H](CCCCN)C(=O)N[C@@H](Cc1c[nH]c2ccccc12)C(=O)N[C@@H](CCCCN)C(=O)N[C@@H](Cc1c[nH]c2ccccc12)C(N)=O (H-WKWKCTKSGCKWKW-NH2)
MIC (Staphylococcus aureus [1]): 4 µg/mL (≈ 2.16 µM)
MIC (Staphylococcus aureus [2]): 8 µg/mL (≈ 4.31 µM)
MIC [3]: 4 µg/mL (≈ 2.16 µM)
MIC (Enterococcus faecalis): 2 µg/mL (≈ 1.08 µM)
MIC (Escherichia coli): 4 µg/mL (≈ 2.16 µM)
MIC [4]: 4 µg/mL (≈ 2.16 µM)
MIC [5]: 1 µg/mL (≈ 0.539 µM)
MIC [6]: 8 µg/mL (≈ 4.31 µM)
MIC (Salmonella enteritidis): 8 µg/mL (≈ 4.31 µM)
MIC (Salmonella typhimurium [7]): 8 µg/mL (≈ 4.31 µM)
MIC (Salmonella typhimurium [8]): 4 µg/mL
MIC (Salmonella typhimurium [9]): 8 µg/mL
MIC (Salmonella typhimurium [10]): 4 µg/mL
MIC (Salmonella typhimurium [11]): 4 µg/mL
MIC (Salmonella typhimurium [12]): 16 µg/mL (≈ 8.63 µM)
hemolysis at 1 h, 128 ug/ml [13]: < 10%
Activity (Salmonella typhimurium [14]): Tde
Activity (Salmonella typhimurium [15]): >99.9%
Activity (Salmonella typhimurium [16]): Active
Activity (Lipopolysaccharide (LPS)): Dose-Dependent Effect
inhibition (RAW264.7 [17]): Active
inhibition (RAW264.7 [18]): Active
inhibition (RAW264.7 [19]): Active
inhibition (RAW264.7 [20]): Dose-Dependent Effect
inhibition (RAW264.7 [21]): Active
Activity (Salmonella typhimurium [22]): Active
Activity (Salmonella typhimurium [23]): Active
Activity (Salmonella typhimurium [24]): Active
Activity (Salmonella typhimurium [25]): Active
Activity (Salmonella typhimurium [26]): Active
Activity (Salmonella typhimurium [27]): Active
Activity (Salmonella typhimurium [28]): Active
Activity (Lipid bilayer): Active
Activity (Cell membrane [29]): Active
Activity (Cell membrane [30]): Active
Activity (Cell membrane [31]): Active
